Test results as given in ChEMBL document CHEMBL5126565, “Discovery of (2-phenylthiazol-4-yl)urea derivatives that induce neuronal differentiation from mesenchymal stem cells” (Bioorg Med Chem Lett, 2022).
Calls of active or inactive are those of the source. No cut-off for these calls is given here.

What was measured:
[1] = Solubility of compound in culture media; format: physicochemical
Mesenchymal stem cells [2] = assay: Cytotoxicity against human derived mesenchymal stem cells assessed as cell viability upto 20 uM measured after 4 days; format: toxicity, cell-based; conditions: 96 h, time 4 day
Mesenchymal stem cells [3] = assay: Effect on cell cycle progression in human derived mesenchymal stem cells upto 20 uM measured after 4 days; format: toxicity, cell-based; conditions: 96 h, time 4 day
[4] = Induction of neural differentiation in human derived mesenchymal stem cells assessed as neuron formation at 5 uM measured TuJI expression by immunohistochemical analysis relative to control; format: functional
Mesenchymal stem cells [5] = assay: Induction of neural differentiation in human derived mesenchymal stem cells assessed as neuron formation measured TuJI expression by immunohistochemical analysis; format: functional, cell-based; conditions: dose 2-5 µM

solubility [1]	Compound	Activity (Mesenchymal stem cells [2])	Activity (Mesenchymal stem cells [3])	fold change (FC) [4]	Activity (Mesenchymal stem cells [5]; DDE = dose-dependent effect)	Activity (Mesenchymal stem cells [5])
Soluble	O=C(NCc1csc(-c2ccccc2)n1)N1CCOCC1	Non-Toxic	Non-Toxic	2	Dde	
Soluble	CN1CCN(C(=O)NCc2csc(-c3ccccc3)n2)CC1	Non-Toxic	Non-Toxic			Active
